Here are results for five compounds from PMC5793879 (Cancer cell, 2017).

The term IC50 denotes the concentration that gives 50% inhibition.

The target of assay [1] is BCL-XL (Homo sapiens, UniProt Q07817). The format is binding. Conditions: BTSA1 at 50 μM.
Assay [2] concerns the target MCL-1 (Homo sapiens, UniProt Q07820). The class given is binding.
Assay [3] relates to MEF cell lines. Nature of the assay: Viability assay of MEF cell lines. The class given is cell-based, mouse.
For assay [4], the system named is isolated mitochondria from mouse liver. The note with it: without addition of BAX.
The test system of assay [5] is BAX KO MEF, DKO MEF, wild type MEF, H9c2 myocytes, 3T3 fibroblasts.
The test system of assay [6] is OCI-AML3 cells. Nature of the assay: Caspase-3/7 activation assay. The format is cell-based, human. Conditions: co-treatment with BTSA1.
Assay [7] has as its target T1, BFL-1/A1 (Homo sapiens, UniProt Q16548).
T1 sequence (Q16548 1-151 limits assumed): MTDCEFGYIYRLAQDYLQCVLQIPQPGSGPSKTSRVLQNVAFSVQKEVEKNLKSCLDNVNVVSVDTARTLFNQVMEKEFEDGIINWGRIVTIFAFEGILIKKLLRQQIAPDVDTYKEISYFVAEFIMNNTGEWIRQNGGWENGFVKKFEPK
The class given is binding. Conditions: BTSA1 at 50 μM.

The target in assay [8] is BAX trigger site (full-length BAX) (Homo sapiens, UniProt Q07812). The format is binding. The note with it: relative to BTSA1.
Sequence of BAX trigger site (full-length BAX) (Q07812 whole entry): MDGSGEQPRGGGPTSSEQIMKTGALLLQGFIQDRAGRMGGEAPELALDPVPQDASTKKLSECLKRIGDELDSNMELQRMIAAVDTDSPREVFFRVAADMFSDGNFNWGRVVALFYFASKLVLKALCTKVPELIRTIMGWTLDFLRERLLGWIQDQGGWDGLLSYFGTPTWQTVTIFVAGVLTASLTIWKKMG

SMILES strings stand for the structures. Like-named read-outs stand apart in the source and are kept apart here. Bridge positions count the residues as written; N and C are the ends. Square brackets hold non-standard residues; d marks the D form. Peptide text beside a SMILES is read from it. S5 = C=CCCC[C@](C)(N)C(=O)O

Sequence of BCL-XL (Q07817 1-212 limits assumed): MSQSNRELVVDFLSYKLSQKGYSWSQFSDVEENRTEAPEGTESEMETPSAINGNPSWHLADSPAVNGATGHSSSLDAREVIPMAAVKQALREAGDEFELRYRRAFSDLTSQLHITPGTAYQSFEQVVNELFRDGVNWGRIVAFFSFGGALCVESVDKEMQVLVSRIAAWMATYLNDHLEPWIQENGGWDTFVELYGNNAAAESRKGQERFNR
Sequence of MCL-1 (Q07820 170-327 limits assumed): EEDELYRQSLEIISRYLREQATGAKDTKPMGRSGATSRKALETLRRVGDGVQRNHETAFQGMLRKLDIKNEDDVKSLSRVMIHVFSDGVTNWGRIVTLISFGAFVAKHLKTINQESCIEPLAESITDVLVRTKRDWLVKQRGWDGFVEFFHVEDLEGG

Take `O=C1C(=NNc2nccs2)C(c2ccccc2)=NN1c1nc(-c2ccccc2)cs1` [BTSA1]: in assay [1], the “competition of FITC-BIM SAHBA2 binding to BCL-XL” value is “no capacity to compete”. For the same compound, in assay [2], the “competition of FITC-BIM SAHBA2 binding to MCL-1” value is “no capacity to compete”. Moreover, the “sensitivity of MEF cell lines” value in assay [3] is given as “insensitive”. In addition, the cytochrome c release result in assay [4] is “no effect”. For the same compound, the “sensitivity to treatment, cells with no BAX expression” value in assay [5] (BAX KO MEF and DKO MEF, 24 hr) is “exhibit resistance”. In addition, the “sensitivity to treatment, cells that express BAX” value in assay [5] (wild type MEF, H9c2 myocytes, 3T3 fibroblasts, doses giving complete cell death in AML cells) was “still exhibit resistance”.

`OC(CN1CCNCC1)Cn1c2ccc(Br)cc2c2cc(Br)ccc21` (stereo not drawn) [reference compound]: the “inhibition of BTSA1-mediated apoptosis measured by caspase-3/7 activation” value in assay [6] is recorded as “complete inhibition”.

For the compound `CC[C@H](C)[C@H](NC(=O)[C@H](Cc1c[nH]c2ccccc12)NC(=O)[C@@H](NC(=O)[C@H](CCC(=O)O)NC(C)=O)[C@@H](C)CC)C(=O)N[C@@H](C)C(=O)N[C@@H](CCC(N)=O)C(=O)N[C@@H](CCC(=O)O)C(=O)N[C@@H](CC(C)C)C(=O)N[C@@H](CCCNC(=N)N)C(=O)N[C@@]1(C)CCCC=CCCC[C@@](C)(C(=O)N[C@@H](Cc2ccccc2)C(=O)N[C@@H](CC(N)=O)C(=O)N[C@@H](C)C(=O)N[C@@H](Cc2ccc(O)cc2)C(=O)N[C@@H](Cc2ccc(O)cc2)C(=O)N[C@@H](C)C(N)=O)NC(=O)[C@H](CC(=O)O)NC(=O)CNC(=O)[C@H]([C@@H](C)CC)NC1=O` [BIM SAHBA2, reference compound] (Ac-EIWIAQELR[S5]IGD[S5]FNAYYA-NH2; staple 10-14 (inferred)), in assay [1], the “competition of FITC-BIM SAHBA2 binding to BCL-XL” value was “effectively competed”. In addition, in assay [2] (BTSA1 at 50 μM), the “competition of FITC-BIM SAHBA2 binding to MCL-1” value is “effectively competed”. For the same compound, the “competition of FITC-BIM SAHBA2 binding to BFL-1/A1” value in assay [7] was “effectively competed”.

With `CC1(C)CCC(c2ccc(Cl)cc2)=C(CN2CCN(c3ccc(C(=O)NS(=O)(=O)c4ccc(N[C@H](CCN5CCOCC5)CSc5ccccc5)c(S(=O)(=O)C(F)(F)F)c4)cc3)CC2)C1` [Navitoclax, reference compound], in assay [3] (Mus musculus, MEF, read-out: IC50, viability), the IC50 is 1000 to 5000 nM.

In the case of `CC1=NN(c2nc(-c3ccccc3)cs2)C(=O)C1=NNc1nccs1` [BTSA2], the “reduction in binding capacity to BAX” value in assay [8] was ~ 10 fold.
